Experimental data reported in patent publication US5008252A, “Process for inhibiting herpes simplex virus-specified thymidine kinase” (The University of North Carolina at Chapel Hill, priority 1987, dated 1991).

Test system: HSV-1 (strain KOS)-infected HeLa BU cells
Experiment: Virus yield assay
Assay type: cell-based
Details: for reversal of antiviral activity by 5'-Et-dThd: 100 μM 5'-Et-dThd, ACV 15 μM, DHPG 2 μM, FIAC 1 μM, BVDU 1 μM, 5'-NH2-dThd 500 μM; for % PFU with a 5'-Et-dThd conc. of 2.5 μM: drug (μM as in row; None = 5'-Et-dThd alone) plus 2.5 μM 5'-Et-dThd; for % PFU with a 5'-Et-dThd conc. of 25 μM: drug (μM as in row; None = 5'-Et-dThd alone) plus 25 μM 5'-Et-dThd; for % PFU with a 5'-Et-dThd conc. of 0 μM: drug alone, drug μM in parentheses in row: ACV 15, FIAC 1, DHPG 2, BVDU 1, 5'-NH2-dThd 500
Protocol: Cell and virus growth inhibition. Cell growth inhibition and the virus yield assay were performed in accordance with the protocol described by Cheng, Y.-C., Grill, S.P., Ruth, J. and Bergstrom, D. E. (Antimicrob. Agents Chemother. 18:957-961 (1980)) with the exceptions that all studies were done using 5% dialyzed fetal bovine serum; the multiplicity of infection was 3 PFU/cell and Vero cells were used instead of CV-1 cells for titration in the virus yield assays.

[1] = Table II, drug (μM as in row; None = 5'-Et-dThd alone) plus 100 μM 5'-Et-dThd

Structure (SMILES)	reversal of antiviral activity by 5'-Et-dThd [fold]	% PFU with a 5'-Et-dThd conc. of 2.5 μM (Table II) [%]	% PFU with a 5'-Et-dThd conc. of 25 μM (Table II) [%]	% PFU with a 5'-Et-dThd conc. of 100 μM [1] [%]	% PFU with a 5'-Et-dThd conc. of 0 μM (Table II) [%]	% PFU with 100 μM 5'-Et-dThd relative to aphidicolin alone (0.2 μM aphidicolin plus 100 μM 5'-Et-dThd)	activity at 0.2 µM (Human alphaherpesvirus 1, HeLa, read-out: %PFU with a 5'-Et-dThd conc. of 0 μM) [%]	%PFU with a 5'-Et-dThd conc. of 5 μM (Table III, aphidicolin 0.2 μM (None = 5'-Et-dThd alone) plus 5 μM 5'-Et-dThd) [%]	%PFU with a 5'-Et-dThd conc. of 20 μM (Table III, aphidicolin 0.2 μM (None = 5'-Et-dThd alone) plus 20 μM 5'-Et-dThd) [%]	% PFU with a 5'-Et-dThd conc. of 100 μM (Table III, aphidicolin 0.2 μM (None = 5'-Et-dThd alone) plus 100 μM 5'-Et-dThd) [%]
Nc1nc2c(ncn2COC(CO)CO)c(=O)[nH]1 [DHPG, 9-(1,3-dihydroxy-2-propoxymethyl) guanine]	100	0.2	4	10	0.1	–	–	–	–	–
O=c1[nH]c(=O)n([C@H]2C[C@H](O)[C@@H](CO)O2)cc1/C=C/Br [BVDU, (E)-5-(2-bromovinyl)-2'-deoxyuridine]	15	9.5	13	–	0.9	–	–	–	–	–
Cc1cn([C@H]2C[C@H](O)[C@@H](CN)O2)c(=O)[nH]c1=O [5'-NH2-dThd, 5'-amino-dThd]	250	0.3	3	50	0.2	–	–	–	–	–
Nc1nc2c(ncn2COCCO)c(=O)[nH]1 [ACV, acyclovir]	35	9	45	70	2	–	–	–	–	–
C[C@@]1(CO)[C@H](O)CC[C@@]2(C)[C@H]1CC[C@H]1C[C@@H]3C[C@@]12CC[C@]3(O)CO [Aphidicolin, aphidicolin]	–	–	–	–	–	less than one half	54	65	45	21
Nc1nc(=O)n([C@@H]2O[C@H](CO)[C@@H](O)[C@@H]2F)cc1I [FIAC, fluoroido-arabinosyl-cytosine]	98	26	59	–	0.6	–	–	–	–	–
